Reference: patent US12729186B2, “Prodrugs for sustained releasing therapeutic agents and uses thereof” (LIANGJIANG MEDICINE CO., LTD., priority 2020, dated 2026)

Test: Drug release assay (hydrolysis rate test in pH 7.4 / pH 2.0 buffer, HPLC)
Assay type: physicochemical
Details: for Hydrolysis constant Kh pH 2.0 / Hydrolysis constant Kh pH 7.4: Kh=-ln[100%-Release rate (%)]/t; for Release rate (%) pH 2.0 (6 h): pH 2.0 buffer solution; for Release rate (%) pH 2.0 (6 h) / Release rate (%) pH 7.4 (0.5 h) / Release rate (%) pH 7.4 (6 h): 37° C., 200 rpm, residual content relative to 0 h by HPLC; for Release rate (%) pH 7.4 (0.5 h) / Release rate (%) pH 7.4 (6 h): pH 7.4 buffer solution
Description: Preparation of pH2.0 Buffer Solution
Preparation of pH7.4 Buffer Solution
Method of Hydrolysis Rate Test
The compounds were dissolved in pH7.4/pH2.0 buffer solution, placed in a constant temperature shaker at 37° C. and 200 rpm, and sampled at 0 h, 0.5 h and 6 h respectively. The residual contents of the compounds relative to 0 h were tested at each time point.
The release rates (%) were calculated using the following equation: Release rate (%)=[A(0h)−A(xh)]/A(0h)×100%, (x=0, 0.5, 6), A(xh) is the peak area of compounds tested by HPLC at the indicated time point.
The hydrolysis constants (Kh) were calculated using the following equation: Hydrolysis constant Kh=−ln[100%−Release rate (%)]/t Results

Row | Compound | Hydrolysis constant Kh pH 2.0 | Release rate (%) pH 2.0 (6 h) [%] | Hydrolysis constant Kh pH 7.4 | Release rate (%) pH 7.4 (0.5 h) [%] | Release rate (%) pH 7.4 (6 h) [%]
1 | CCCCN(CCCC)c1ccc(N2CCC(CCOC(=O)OCn3cc(F)c(=O)[nH]c3=O)CC2)cc1 [Example 1, 2-(1-(4-(Dibutylamino)phenyl)piperidin-4-yl)ethyl ((5-fluoro-2,4-dioxo-3,4-dihydropyrimidin-1(2H)-yl)methyl) carbonate] | <0.001 | 0 | 0.111 | 5.4 | 64
2 | CCCN(CCC)c1ccc(-c2ccc(OC(=O)OCn3cc(F)c(=O)[nH]c3=O)cc2)cc1 [Example 2, 4′-(Dipropylamino)-[1,1′-biphenyl]-4-yl ((5-fluoro-2,4-dioxo-3,4-dihydropyrimidin-1(2H)-yl)methyl) carbonate] | 0.080 | 38 | 2.375 | 69.5 | 89
3 | CCCCCN(CCCCC)c1ccc(OC(=O)OCn2cc(F)c(=O)[nH]c2=O)cc1 [Example 3, 4-(Dipentylamino)phenyl ((5-fluoro-2,4-dioxo-3,4-dihydropyrimidin-1(2H)-yl)methyl) carbonate] | 0.153 | 60 | 1.873 | 60.8 | 100
4 | Cc1cc(C)cc(N2CCC(c3ccc(OC(=O)OCn4cc(F)c(=O)[nH]c4=O)cc3)CC2)c1 [Example 4, 4-(1-(3,5-Dimethylphenyl)piperidin-4-yl)phenyl ((5-fluoro-2,4-dioxo-3,4-dihydropyrimidin-1(2H)-yl)methyl) carbonate] | 0.039 | 21 | 3.509 | 82.7 | 98
5 | CCCc1ccc(N2CCc3cc(OC(=O)OCn4cc(F)c(=O)[nH]c4=O)ccc3C2)cc1 [Example 5, (5-Fluoro-2,4-dioxo-3,4-dihydropyrimidin-1(2H)-yl)methyl (2-(4-propylphenyl)-1,2,3,4-tetrahydroisoquinolin-6-yl) carbonate] | 0.137 | 56 | 5.838 | 94.6 | 95
6 | CCCc1ccc(N2CCC(Cc3ccc(OC(=O)OCn4cc(F)c(=O)[nH]c4=O)cc3)CC2)cc1 [Example 6, (5-Fluoro-2,4-dioxo-3,4-dihydropyrimidin-1(2H)-yl)methyl (4-((1-(4-propylphenyl)piperidin-4-yl)methyl)phenyl) carbonate] | 0.033 | 18 | 3.521 | 82.8 | 75
7 | O=C(OCn1cc(F)c(=O)[nH]c1=O)Oc1ccc(C2CCN(CC(c3ccccc3)c3ccccc3)CC2)cc1 [Example 7, 4-(1-(2,2-Diphenylethyl)piperidin-4-yl)phenyl ((5-fluoro-2,4-dioxo-3,4-dihydropyrimidin-1(2H)-yl)methyl) carbonate] | 0.029 | 16 | 9.924 | 99.3 | 92
8 | O=C(OCn1cc(F)c(=O)[nH]c1=O)Oc1ccc(C2CCN(CC34CC5CC(CC(C5)C3)C4)CC2)cc1 [Example 8, 4-(1-(Adamantan-1-ylmethyl)piperidin-4-yl)phenyl ((5-fluoro-2,4-dioxo-3,4-dihydropyrimidin-1(2H)-yl)methyl) carbonate] | 0.041 | 22 | 11.043 | 99.6 | 99
9 | O=C(OCn1cc(F)c(=O)[nH]c1=O)Oc1ccc(CC2CCN(C(c3ccccc3)c3ccccc3)CC2)cc1 [Example 9, 4-((1-Benzhydrylpiperidin-4-yl)methyl)phenyl ((5-fluoro-2,4-dioxo-3,4-dihydropyrimidin-1(2H)-yl)methyl) carbonate] | 0.027 | 15 | 4.508 | 89.5 | 90
10 | CCCCC1CCN(c2ccc(CCOC(=O)n3cc(F)c(=O)[nH]c3=O)cc2)CC1 [Example 10, 4-(4-Butylpiperidin-1-yl)phenethyl 5-fluoro-2,4-dioxo-3,4-dihydropyrimidine-1(2H)-carboxylate] | 0.077 | 37 | 0.256 | 12.0 | 54
11 | CCCCN(CCCC)c1ccc(N2CCC(CCOC(=O)n3cc(F)c(=O)[nH]c3=O)CC2)cc1 [Example 11, 2-(1-(4-(Dibutylamino)phenyl)piperidin-4-yl)ethyl 5-fluoro-2,4-dioxo-3,4-dihydropyrimidine-1(2H)-carboxylate] | 0.067 | 33 | 0.117 | 5.7 | 83
12 | CC[C@@]1(O)C(=O)OCc2c1cc1n(c2=O)Cc2cc3cc(OC(=O)CC4CCN(CC(c5ccccc5)c5ccccc5)CC4)ccc3nc2-1 [Example 13, (S)-4-ethyl-4-hydroxy-3,14-dioxo-3,4,12,14-tetrahydro-1H-pyrano[3′,4′:6,7]indolizino[1,2-b]quinolin-9-yl 2-(1-(2,2-diphenylethyl)piperidin-4-yl)acetate] | <0.001 | 0.5 | 0.042 | 2.1 | 23.3
13 | CCc1c2c(nc3ccc(OC(=O)[C@@H]4CCCN4C(c4ccccc4)c4ccccc4)cc13)-c1cc3c(c(=O)n1C2)COC(=O)[C@]3(O)CC [Example 14, (S)-4,11-diethyl-4-hydroxy-3,14-dioxo-3,4,12,14-tetrahydro-1H-pyrano[3′,4′:6,7]indolizino[1,2-b]quinolin-9-yl benzhydrylprolinate] | 0.015 | 8.4 | 3.876 | 85.6 | 84.4
14 | CCc1c2c(nc3ccc(OC(=O)NCC4CCCN4C(c4ccccc4)c4ccccc4)cc13)-c1cc3c(c(=O)n1C2)COC(=O)[C@]3(O)CC (stereo partly drawn) [Example 16, (S)-4,11-diethyl-4-hydroxy-3,14-dioxo-3,4,12,14-tetrahydro-1H-pyrano[3′,4′:6,7]indolizino[1,2-b]quinolin-9-yl ((1-benzhydrylpyrrolidin-2-yl)methyl)carbamate] | <0.001 | 0.4 | 6.540 | 96.2 | 100
15 | CCCCN1CCC(c2ccc(OC(=O)Oc3ccc4nc5c(c(CC)c4c3)Cn3c-5cc4c(c3=O)COC(=O)[C@]4(O)CC)cc2)CC1 [Example 17, (S)-4-(1-butylpiperidin-4-yl)phenyl (4,11-diethyl-4-hydroxy-3,14-dioxo-3,4,12,14-tetrahydro-1H-pyrano[3′,4′:6,7]indolizino[1,2-b]quinolin-9-yl) carbonate] | 0.095 | 43.6 | 0.096 | 4.7 | 57.4
16 | CCCCCCCN1CCC(COC(=O)Oc2ccc3nc4c(c(CC)c3c2)Cn2c-4cc3c(c2=O)COC(=O)[C@]3(O)CC)CC1 [Example 18, (S)-4,11-diethyl-4-hydroxy-3,14-dioxo-3,4,12,14-tetrahydro-1H-pyrano[3′,4′:6,7]indolizino[1,2-b]quinolin-9-yl ((1-heptylpiperidin-4-yl)methyl) carbonate] | <0.001 | 0.3 | 0.184 | 8.8 | 11.9
17 | CCc1c2c(nc3ccc(OC(=O)CN(C4CCCCC4)C4CCCCC4)cc13)-c1cc3c(c(=O)n1C2)COC(=O)[C@]3(O)CC [Example 19, (S)-4,11-diethyl-4-hydroxy-3,14-dioxo-3,4,12,14-tetrahydro-1H-pyrano[3′,4′:6,7]indolizino[1,2-b]quinolin-9-yl dicyclohexylglycinate] | 0.041 | 21.8 | 0.865 | 35.1 | 100
18 | CC[C@@]1(O)C(=O)OCc2c1cc1n(c2=O)Cc2cc3cc(OC(=O)OCC4CCCN4C(c4ccccc4)c4ccccc4)ccc3nc2-1 (stereo partly drawn) [Example 20, (1-Benzhydrylpyrrolidin-2-yl)methyl ((S)-4-ethyl-4-hydroxy-3,14-dioxo-3,4,12,14-tetrahydro-1H-pyrano[3′,4′:6,7]indolizino[1,2-b]quinolin-9-yl) carbonate] | 0.078 | 37.2 | >20 | 100 | 100
